According to the supplement of paper PMC6045584:
± gives the standard deviation of the averaged measurements.

compound: COc1cc2ncnc(Nc3ccc(F)c(Cl)c3)c2cc1OCCCN1CCOCC1 [GEFITINIB]; experiment: surviving fraction relative to DMSO-only wells; higher = less growth inhibition; settings: 1 nM; exposure time: 5 days
Outline: (§1)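 For each tumour cell line, log-phase cells were put into 384-well plates at 250–500 cells per well, then after 24 hours exposed continuously for five days to inhibitors at 0.5, 1, 5, 10, 50, 100, 500 and 1000 nM. Viability was assessed by CellTiter-Glo luminescence, with surviving fraction expressed relative to the median of DMSO-only wells. Lines were screened three times and retained only if replicate Pearson r exceeded 0.7 and median Z' exceeded 0.3.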

| Test System | surviving fraction |
| --- | --- |
| HCC1395 BREAST | 1.07 ± 0.035 |
| HCC1954 BREAST | 1.25 ± 0.25 |
| SUM149 BREAST | 1.15 ± 0.098 |

same assay, conditions: 5 nM; exposure time: 5 days

| Test System | surviving fraction |
| --- | --- |
| C33A CERVIX | 1.01 ± 0.018 |
| HCC70 BREAST | 1.15 ± 0.14 |
| HCC1395 BREAST | 1.18 ± 0.12 |
| HCC1954 BREAST | 1.01 ± 0.029 |
| SUM149 BREAST | 1.08 ± 0.052 |

same assay, conditions: 10 nM; exposure time: 5 days

| Test System | surviving fraction |
| --- | --- |
| C33A CERVIX | 0.969 ± 0.049 |
| HCC70 BREAST | 1.02 ± 0.075 |
| HCC1395 BREAST | 1.22 ± 0.17 |
| HCC1954 BREAST | 1.2 ± 0.13 |
| SUM149 BREAST | 1.15 ± 0.12 |

same assay, conditions: 50 nM; exposure time: 5 days

| Test System | surviving fraction |
| --- | --- |
| C33A CERVIX | 0.91 ± 0.052 |
| HCC70 BREAST | 1.03 ± 0.042 |
| HCC1395 BREAST | 1.24 ± 0.059 |
| HCC1954 BREAST | 0.855 ± 0.011 |
| SUM149 BREAST | 0.926 ± 0.016 |

same assay, conditions: 100 nM; exposure time: 5 days

| Test System | surviving fraction |
| --- | --- |
| C33A CERVIX | 0.973 ± 0.02 |
| HCC70 BREAST | 1.01 ± 0.088 |
| HCC1395 BREAST | 1.21 ± 0.045 |
| HCC1954 BREAST | 0.702 ± 0.0081 |
| SUM149 BREAST | 0.8 ± 0.026 |

same assay, conditions: 500 nM; exposure time: 5 days

| Test System | surviving fraction |
| --- | --- |
| C33A CERVIX | 0.551 ± 0.054 |
| HCC70 BREAST | 0.815 ± 0.048 |
| HCC1395 BREAST | 1.2 ± 0.085 |
| HCC1954 BREAST | 0.459 ± 0.064 |
| SUM149 BREAST | 0.487 ± 0.04 |

same assay, conditions: 1000 nM; exposure time: 5 days

| Test System | surviving fraction |
| --- | --- |
| C33A CERVIX | 0.457 ± 0.058 |
| HCC70 BREAST | 0.848 ± 0.068 |
| HCC1395 BREAST | 1.11 ± 0.039 |
| HCC1954 BREAST | 0.408 ± 0.016 |
| SUM149 BREAST | 0.448 ± 0.076 |

compound: C[C@]1(O)C[C@@H](c2nc(-c3ccc4ccc(-c5ccccc5)nc4c3)c3c(N)nccn32)C1 [OSI-906]; experiment: as above; settings: 0.5 nM; exposure time: 5 days
Outline: as §1

| Test System | surviving fraction |
| --- | --- |
| C33A CERVIX | 0.981 ± 0.054 |
| HCC70 BREAST | 0.861 ± 0.13 |
| HCC1395 BREAST | 0.851 ± 0.028 |
| HCC1954 BREAST | 0.33 ± 0.0085 |
| SUM149 BREAST | 0.923 ± 0.08 |

same assay, conditions: 1 nM; exposure time: 5 days

| Test System | surviving fraction |
| --- | --- |
| C33A CERVIX | 0.945 ± 0.052 |
| HCC70 BREAST | 1.02 ± 0.099 |
| HCC1395 BREAST | 0.962 ± 0.13 |
| HCC1954 BREAST | 0.37 ± 0.012 |
| SUM149 BREAST | 0.951 ± 0.079 |

same assay, conditions: 5 nM; exposure time: 5 days

| Test System | surviving fraction |
| --- | --- |
| C33A CERVIX | 1.08 ± 0.011 |
| HCC70 BREAST | 1.04 ± 0.081 |
| HCC1395 BREAST | 0.977 ± 0.095 |
| HCC1954 BREAST | 0.384 ± 0.046 |
| SUM149 BREAST | 0.839 ± 0.035 |

same assay, conditions: 10 nM; exposure time: 5 days

| Test System | surviving fraction |
| --- | --- |
| C33A CERVIX | 1.1 ± 0.053 |
| HCC70 BREAST | 1.02 ± 0.055 |
| HCC1395 BREAST | 0.949 ± 0.027 |
| HCC1954 BREAST | 0.475 ± 0.025 |
| SUM149 BREAST | 0.79 ± 0.035 |

same assay, conditions: 50 nM; exposure time: 5 days

| Test System | surviving fraction |
| --- | --- |
| C33A CERVIX | 1.02 ± 0.13 |
| HCC70 BREAST | 1.04 ± 0.018 |
| HCC1395 BREAST | 1.04 ± 0.014 |
| HCC1954 BREAST | 0.457 ± 0.063 |
| SUM149 BREAST | 0.827 ± 0.2 |

same assay, conditions: 100 nM; exposure time: 5 days

| Test System | surviving fraction |
| --- | --- |
| C33A CERVIX | 1.05 ± 0.14 |
| HCC70 BREAST | 1.08 ± 0.017 |
| HCC1395 BREAST | 1.12 ± 0.13 |
| HCC1954 BREAST | 0.384 ± 0.012 |
| SUM149 BREAST | 0.782 ± 0.082 |

same assay, conditions: 500 nM; exposure time: 5 days

| Test System | surviving fraction |
| --- | --- |
| C33A CERVIX | 1.06 ± 0.096 |
| HCC70 BREAST | 1 ± 0.053 |
| HCC1395 BREAST | 0.847 ± 0.14 |
| HCC1954 BREAST | 0.314 ± 0.04 |
| SUM149 BREAST | 0.581 ± 0.078 |

same assay, conditions: 1000 nM; exposure time: 5 days

| Test System | surviving fraction |
| --- | --- |
| C33A CERVIX | 0.985 ± 0.011 |
| HCC70 BREAST | 0.924 ± 0.11 |
| HCC1395 BREAST | 0.986 ± 0.043 |
| HCC1954 BREAST | 0.35 ± 0.023 |
| SUM149 BREAST | 0.553 ± 0.034 |

compound: Cc1ccc(-c2cc(C(F)(F)F)nn2-c2ccc(S(N)(=O)=O)cc2)cc1 [CELECOXIB]; experiment: as above; settings: 0.5 nM; exposure time: 5 days
Outline: as §1

| Test System | surviving fraction |
| --- | --- |
| C33A CERVIX | 0.897 ± 0.037 |
| HCC70 BREAST | 1.07 ± 0.049 |
| HCC1395 BREAST | 1.17 ± 0.084 |
| HCC1954 BREAST | 1.05 ± 0.12 |
| SUM149 BREAST | 1.1 ± 0.056 |

same assay, conditions: 1 nM; exposure time: 5 days

| Test System | surviving fraction |
| --- | --- |
| C33A CERVIX | 0.951 ± 0.11 |
| HCC70 BREAST | 1.045 ± 0.0081 |
| HCC1395 BREAST | 1.2 ± 0.13 |
| HCC1954 BREAST | 1.07 ± 0.076 |
| SUM149 BREAST | 1.09 ± 0.021 |

same assay, conditions: 5 nM; exposure time: 5 days

| Test System | surviving fraction |
| --- | --- |
| C33A CERVIX | 1.01 ± 0.083 |
| HCC70 BREAST | 1.08 ± 0.067 |
| HCC1395 BREAST | 1.32 ± 0.041 |
| HCC1954 BREAST | 1.39 ± 0.077 |
| SUM149 BREAST | 1.2 ± 0.035 |

same assay, conditions: 10 nM; exposure time: 5 days

| Test System | surviving fraction |
| --- | --- |
| C33A CERVIX | 0.954 ± 0.037 |
| HCC70 BREAST | 1.13 ± 0.091 |
| HCC1395 BREAST | 1.26 ± 0.053 |
| HCC1954 BREAST | 1.27 ± 0.065 |
| SUM149 BREAST | 1.16 ± 0.057 |

same assay, conditions: 50 nM; exposure time: 5 days

| Test System | surviving fraction |
| --- | --- |
| C33A CERVIX | 0.932 ± 0.11 |
| HCC70 BREAST | 1.06 ± 0.044 |
| HCC1395 BREAST | 1.27 ± 0.038 |
| HCC1954 BREAST | 1.11 ± 0.033 |
| SUM149 BREAST | 1.08 ± 0.021 |

same assay, conditions: 100 nM; exposure time: 5 days

| Test System | surviving fraction |
| --- | --- |
| C33A CERVIX | 1.04 ± 0.088 |
| HCC70 BREAST | 1.04 ± 0.099 |
| HCC1395 BREAST | 1.22 ± 0.041 |
| HCC1954 BREAST | 0.959 ± 0.038 |
